From ChEMBL document CHEMBL1145498, “A systematic interaction map of validated kinase inhibitors with Ser/Thr kinases” (Proc Natl Acad Sci U S A, 2007)

molecular target: Calcium/calmodulin-dependent protein kinase type II subunit beta (Homo sapiens) (UniProt Q13554)
Sequence (Q13554 whole entry): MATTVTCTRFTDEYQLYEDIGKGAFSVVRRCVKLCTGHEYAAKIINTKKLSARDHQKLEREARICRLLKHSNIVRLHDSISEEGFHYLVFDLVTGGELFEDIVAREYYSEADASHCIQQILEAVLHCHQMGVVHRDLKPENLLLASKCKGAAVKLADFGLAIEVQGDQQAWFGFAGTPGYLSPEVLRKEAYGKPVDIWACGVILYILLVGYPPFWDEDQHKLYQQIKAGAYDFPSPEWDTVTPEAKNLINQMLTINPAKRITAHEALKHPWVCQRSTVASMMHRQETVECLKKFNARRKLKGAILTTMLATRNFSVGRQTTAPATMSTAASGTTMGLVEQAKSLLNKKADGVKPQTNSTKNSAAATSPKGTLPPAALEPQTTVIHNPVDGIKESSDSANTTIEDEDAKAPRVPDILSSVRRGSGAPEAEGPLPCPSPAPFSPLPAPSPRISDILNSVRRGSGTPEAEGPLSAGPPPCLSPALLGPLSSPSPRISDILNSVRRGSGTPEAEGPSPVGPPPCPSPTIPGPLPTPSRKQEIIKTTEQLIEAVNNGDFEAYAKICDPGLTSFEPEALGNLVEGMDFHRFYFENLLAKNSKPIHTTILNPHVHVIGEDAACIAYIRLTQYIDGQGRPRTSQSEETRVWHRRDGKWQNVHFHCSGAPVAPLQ

| Compound | ΔTm [°C] |
| --- | --- |
| O=c1cc(-c2ccc(O)cc2)oc2cc(O)cc(O)c12 | 0.5 |
| Cc1cc2ncc(-c3ccccc3)nc2cc1C | 0.8 |
| O=C(O)c1cc(NCc2cc(O)ccc2O)ccc1O | 0 |
| CC(C)N(CCO)c1nc(Nc2cccc(Cl)c2)c2ncn(C(C)C)c2n1 | 0.4 |
| OC[C@H]1O[C@@H](n2cnc3cc(Cl)c(Cl)cc32)[C@H](O)[C@@H]1O | -0.1 |
| COc1cc2ncnc(Nc3cccc(O)c3)c2cc1OC | 0.2 |

molecular target: Cyclin-dependent kinase-like 1 (Homo sapiens) (UniProt Q00532)
Sequence (Q00532 whole entry): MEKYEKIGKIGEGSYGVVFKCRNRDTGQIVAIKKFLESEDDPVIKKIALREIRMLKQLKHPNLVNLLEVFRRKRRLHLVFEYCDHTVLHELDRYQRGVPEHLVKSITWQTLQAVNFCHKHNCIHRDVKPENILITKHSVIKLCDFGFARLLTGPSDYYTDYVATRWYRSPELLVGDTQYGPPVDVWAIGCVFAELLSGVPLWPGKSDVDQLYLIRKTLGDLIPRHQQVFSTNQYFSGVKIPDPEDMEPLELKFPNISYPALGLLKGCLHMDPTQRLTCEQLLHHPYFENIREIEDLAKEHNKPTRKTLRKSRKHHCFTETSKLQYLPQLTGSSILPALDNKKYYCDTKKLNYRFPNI

| Compound | ΔTm [°C] |
| --- | --- |
| O=c1cc(-c2ccc(O)cc2)oc2cc(O)cc(O)c12 | 1.4 |
| Cc1cc2ncc(-c3ccccc3)nc2cc1C | -0.3 |
| O=C(O)c1cc(NCc2cc(O)ccc2O)ccc1O | -0.4 |
| CC(C)N(CCO)c1nc(Nc2cccc(Cl)c2)c2ncn(C(C)C)c2n1 | 0.3 |
| OC[C@H]1O[C@@H](n2cnc3cc(Cl)c(Cl)cc32)[C@H](O)[C@@H]1O | -0.2 |
| COc1cc2ncnc(Nc3cccc(O)c3)c2cc1OC | -0.2 |

molecular target: Casein kinase I isoform gamma-1 (Homo sapiens) (UniProt Q9HCP0)
Sequence (Q9HCP0 whole entry, looked up, canonical isoform): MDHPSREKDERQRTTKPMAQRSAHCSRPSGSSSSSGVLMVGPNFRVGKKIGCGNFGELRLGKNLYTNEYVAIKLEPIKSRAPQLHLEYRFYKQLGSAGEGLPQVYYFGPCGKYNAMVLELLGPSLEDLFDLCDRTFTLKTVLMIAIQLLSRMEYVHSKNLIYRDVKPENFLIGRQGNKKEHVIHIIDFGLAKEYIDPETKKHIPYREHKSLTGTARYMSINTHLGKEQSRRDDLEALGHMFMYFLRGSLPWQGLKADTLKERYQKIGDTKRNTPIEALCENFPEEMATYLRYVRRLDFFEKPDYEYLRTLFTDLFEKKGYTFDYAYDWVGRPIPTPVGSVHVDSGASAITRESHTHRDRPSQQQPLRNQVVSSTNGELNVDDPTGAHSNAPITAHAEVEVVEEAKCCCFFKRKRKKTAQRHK

| Compound | ΔTm [°C] |
| --- | --- |
| O=c1cc(-c2ccc(O)cc2)oc2cc(O)cc(O)c12 | 1.4 |
| Cc1cc2ncc(-c3ccccc3)nc2cc1C | 0.7 |
| O=C(O)c1cc(NCc2cc(O)ccc2O)ccc1O | 0.6 |
| CC(C)N(CCO)c1nc(Nc2cccc(Cl)c2)c2ncn(C(C)C)c2n1 | 6.1 |
| OC[C@H]1O[C@@H](n2cnc3cc(Cl)c(Cl)cc32)[C@H](O)[C@@H]1O | 0.7 |
| COc1cc2ncnc(Nc3cccc(O)c3)c2cc1OC | 1.3 |

molecular target: Glycogen synthase kinase-3 beta (Homo sapiens, UniProt P49841)
Sequence (P49841 whole entry, looked up): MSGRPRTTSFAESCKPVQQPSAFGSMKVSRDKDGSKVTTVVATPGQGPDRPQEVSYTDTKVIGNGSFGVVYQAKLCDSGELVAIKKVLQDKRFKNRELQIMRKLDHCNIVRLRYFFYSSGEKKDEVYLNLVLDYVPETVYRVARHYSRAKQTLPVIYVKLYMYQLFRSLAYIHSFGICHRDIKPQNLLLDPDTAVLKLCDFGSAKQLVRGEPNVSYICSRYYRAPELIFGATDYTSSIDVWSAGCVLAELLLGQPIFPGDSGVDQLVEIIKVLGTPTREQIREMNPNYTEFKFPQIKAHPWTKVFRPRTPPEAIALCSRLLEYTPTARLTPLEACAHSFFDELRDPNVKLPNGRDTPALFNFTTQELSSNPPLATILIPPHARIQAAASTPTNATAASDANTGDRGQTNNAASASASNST

| Compound | ΔTm [°C] |
| --- | --- |
| O=c1cc(-c2ccc(O)cc2)oc2cc(O)cc(O)c12 | 5 |
| Cc1cc2ncc(-c3ccccc3)nc2cc1C | -0.6 |
| O=C(O)c1cc(NCc2cc(O)ccc2O)ccc1O | -0.4 |
| CC(C)N(CCO)c1nc(Nc2cccc(Cl)c2)c2ncn(C(C)C)c2n1 | 2.4 |
| OC[C@H]1O[C@@H](n2cnc3cc(Cl)c(Cl)cc32)[C@H](O)[C@@H]1O | 0.7 |
| COc1cc2ncnc(Nc3cccc(O)c3)c2cc1OC | 2.2 |

molecular target: Serine/threonine-protein kinase PAK 4 (Homo sapiens) (UniProt O96013)
Sequence (O96013 whole entry, looked up): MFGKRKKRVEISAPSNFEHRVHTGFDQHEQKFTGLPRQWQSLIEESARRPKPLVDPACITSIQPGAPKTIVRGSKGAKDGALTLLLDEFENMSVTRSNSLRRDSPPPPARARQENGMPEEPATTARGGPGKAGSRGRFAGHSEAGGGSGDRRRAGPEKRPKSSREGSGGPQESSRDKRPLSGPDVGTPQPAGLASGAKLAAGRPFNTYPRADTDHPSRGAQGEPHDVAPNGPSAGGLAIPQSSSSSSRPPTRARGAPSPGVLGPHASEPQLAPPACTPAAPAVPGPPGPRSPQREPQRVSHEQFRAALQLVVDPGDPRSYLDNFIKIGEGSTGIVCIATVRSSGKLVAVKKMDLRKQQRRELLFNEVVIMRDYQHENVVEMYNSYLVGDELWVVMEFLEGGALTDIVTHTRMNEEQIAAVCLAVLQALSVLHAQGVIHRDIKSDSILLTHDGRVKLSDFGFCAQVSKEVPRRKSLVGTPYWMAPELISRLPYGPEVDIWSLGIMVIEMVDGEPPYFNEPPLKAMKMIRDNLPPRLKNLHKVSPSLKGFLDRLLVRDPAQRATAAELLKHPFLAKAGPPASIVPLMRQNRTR

| Compound | ΔTm [°C] |
| --- | --- |
| O=c1cc(-c2ccc(O)cc2)oc2cc(O)cc(O)c12 | 0.3 |
| Cc1cc2ncc(-c3ccccc3)nc2cc1C | 1.1 |
| O=C(O)c1cc(NCc2cc(O)ccc2O)ccc1O | 0 |
| CC(C)N(CCO)c1nc(Nc2cccc(Cl)c2)c2ncn(C(C)C)c2n1 | 4.7 |
| OC[C@H]1O[C@@H](n2cnc3cc(Cl)c(Cl)cc32)[C@H](O)[C@@H]1O | -0.9 |
| COc1cc2ncnc(Nc3cccc(O)c3)c2cc1OC | 1 |

molecular target: Serine/threonine-protein kinase PAK 6 (Homo sapiens) (UniProt Q9NQU5)
Sequence (Q9NQU5 whole entry, looked up): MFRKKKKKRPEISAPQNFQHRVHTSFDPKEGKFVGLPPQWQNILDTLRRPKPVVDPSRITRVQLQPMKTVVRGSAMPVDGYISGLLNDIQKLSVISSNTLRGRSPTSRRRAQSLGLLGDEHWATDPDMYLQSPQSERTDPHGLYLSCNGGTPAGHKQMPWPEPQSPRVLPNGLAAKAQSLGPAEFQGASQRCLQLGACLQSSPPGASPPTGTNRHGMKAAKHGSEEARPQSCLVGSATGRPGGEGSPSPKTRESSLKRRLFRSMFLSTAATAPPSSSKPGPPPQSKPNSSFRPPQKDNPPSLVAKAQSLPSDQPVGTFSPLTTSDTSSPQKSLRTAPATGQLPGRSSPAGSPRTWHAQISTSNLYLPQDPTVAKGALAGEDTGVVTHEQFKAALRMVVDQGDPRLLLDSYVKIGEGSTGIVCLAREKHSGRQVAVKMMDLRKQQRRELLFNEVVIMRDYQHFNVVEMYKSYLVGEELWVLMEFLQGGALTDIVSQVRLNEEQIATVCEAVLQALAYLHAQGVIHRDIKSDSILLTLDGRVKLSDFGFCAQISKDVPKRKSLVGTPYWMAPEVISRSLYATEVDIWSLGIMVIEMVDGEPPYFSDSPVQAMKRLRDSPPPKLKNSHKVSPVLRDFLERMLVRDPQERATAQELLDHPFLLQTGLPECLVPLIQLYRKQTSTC

| Compound | ΔTm [°C] |
| --- | --- |
| O=c1cc(-c2ccc(O)cc2)oc2cc(O)cc(O)c12 | 0.3 |
| Cc1cc2ncc(-c3ccccc3)nc2cc1C | 0 |
| O=C(O)c1cc(NCc2cc(O)ccc2O)ccc1O | -0.1 |
| CC(C)N(CCO)c1nc(Nc2cccc(Cl)c2)c2ncn(C(C)C)c2n1 | 5.3 |
| OC[C@H]1O[C@@H](n2cnc3cc(Cl)c(Cl)cc32)[C@H](O)[C@@H]1O | -0.4 |

molecular target: T1, Serine/threonine-protein kinase PLK4 (Homo sapiens) (UniProt O00444)
T1 sequence (whole entry): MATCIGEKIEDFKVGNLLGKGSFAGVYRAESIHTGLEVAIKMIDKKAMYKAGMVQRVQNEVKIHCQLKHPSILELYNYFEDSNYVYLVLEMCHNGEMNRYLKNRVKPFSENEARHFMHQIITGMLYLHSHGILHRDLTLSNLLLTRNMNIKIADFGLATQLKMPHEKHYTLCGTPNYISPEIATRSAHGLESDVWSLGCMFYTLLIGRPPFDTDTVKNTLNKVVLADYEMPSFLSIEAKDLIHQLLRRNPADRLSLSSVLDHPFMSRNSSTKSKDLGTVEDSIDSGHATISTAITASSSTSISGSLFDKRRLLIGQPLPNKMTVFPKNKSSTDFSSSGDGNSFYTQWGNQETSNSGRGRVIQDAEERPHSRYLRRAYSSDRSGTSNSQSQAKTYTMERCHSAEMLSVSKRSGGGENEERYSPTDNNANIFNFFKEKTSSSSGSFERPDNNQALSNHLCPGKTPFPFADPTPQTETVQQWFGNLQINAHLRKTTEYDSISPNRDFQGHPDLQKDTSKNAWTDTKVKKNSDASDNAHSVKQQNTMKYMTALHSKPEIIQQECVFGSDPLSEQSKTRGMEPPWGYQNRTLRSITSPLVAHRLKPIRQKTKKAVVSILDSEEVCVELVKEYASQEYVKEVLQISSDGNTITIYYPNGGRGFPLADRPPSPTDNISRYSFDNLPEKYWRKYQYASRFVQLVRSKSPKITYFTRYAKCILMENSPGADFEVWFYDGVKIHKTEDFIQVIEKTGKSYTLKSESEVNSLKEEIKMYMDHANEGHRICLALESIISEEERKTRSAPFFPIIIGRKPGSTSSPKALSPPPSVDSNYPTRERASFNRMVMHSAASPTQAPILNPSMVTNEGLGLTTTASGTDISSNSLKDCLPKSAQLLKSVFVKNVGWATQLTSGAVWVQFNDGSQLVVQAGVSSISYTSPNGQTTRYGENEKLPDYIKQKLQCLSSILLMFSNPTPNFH

| Compound | ΔTm [°C] |
| --- | --- |
| O=c1cc(-c2ccc(O)cc2)oc2cc(O)cc(O)c12 | 5.2 |
| Cc1cc2ncc(-c3ccccc3)nc2cc1C | 0.1 |
| O=C(O)c1cc(NCc2cc(O)ccc2O)ccc1O | 0.1 |
| CC(C)N(CCO)c1nc(Nc2cccc(Cl)c2)c2ncn(C(C)C)c2n1 | 1.2 |
| OC[C@H]1O[C@@H](n2cnc3cc(Cl)c(Cl)cc32)[C@H](O)[C@@H]1O | 0.5 |
| COc1cc2ncnc(Nc3cccc(O)c3)c2cc1OC | 3.9 |

molecular target: Serine/threonine-protein kinase 16 (Homo sapiens) (UniProt O75716)
Sequence (O75716 whole entry): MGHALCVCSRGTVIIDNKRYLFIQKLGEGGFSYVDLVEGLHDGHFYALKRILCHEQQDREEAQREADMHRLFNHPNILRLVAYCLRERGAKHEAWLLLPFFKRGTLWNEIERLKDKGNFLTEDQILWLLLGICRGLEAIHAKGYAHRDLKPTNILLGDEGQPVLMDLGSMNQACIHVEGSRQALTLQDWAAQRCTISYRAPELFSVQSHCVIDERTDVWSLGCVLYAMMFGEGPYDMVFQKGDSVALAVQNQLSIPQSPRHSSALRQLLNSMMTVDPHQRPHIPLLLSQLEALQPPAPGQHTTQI

| Compound | ΔTm [°C] |
| --- | --- |
| O=c1cc(-c2ccc(O)cc2)oc2cc(O)cc(O)c12 | 4.8 |
| Cc1cc2ncc(-c3ccccc3)nc2cc1C | 0.5 |
| O=C(O)c1cc(NCc2cc(O)ccc2O)ccc1O | 0.5 |
| CC(C)N(CCO)c1nc(Nc2cccc(Cl)c2)c2ncn(C(C)C)c2n1 | 3.1 |
| OC[C@H]1O[C@@H](n2cnc3cc(Cl)c(Cl)cc32)[C@H](O)[C@@H]1O | 1.1 |
| COc1cc2ncnc(Nc3cccc(O)c3)c2cc1OC | 0.4 |

molecular target: Serine/threonine-protein kinase 38 (Homo sapiens) (UniProt Q15208)
Sequence (Q15208 2-465 limits assumed): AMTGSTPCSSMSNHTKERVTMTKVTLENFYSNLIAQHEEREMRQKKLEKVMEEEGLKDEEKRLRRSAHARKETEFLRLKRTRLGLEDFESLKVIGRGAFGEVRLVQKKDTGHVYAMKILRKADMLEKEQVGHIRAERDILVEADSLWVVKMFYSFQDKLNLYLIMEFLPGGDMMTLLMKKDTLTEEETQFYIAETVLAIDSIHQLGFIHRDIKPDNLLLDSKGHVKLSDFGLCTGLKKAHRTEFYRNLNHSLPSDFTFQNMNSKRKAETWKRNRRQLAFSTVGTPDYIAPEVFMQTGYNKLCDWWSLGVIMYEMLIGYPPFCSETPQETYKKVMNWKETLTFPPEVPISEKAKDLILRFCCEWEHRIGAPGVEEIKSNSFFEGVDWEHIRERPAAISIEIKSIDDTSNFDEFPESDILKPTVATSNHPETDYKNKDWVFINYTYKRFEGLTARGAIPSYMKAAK

| Compound | ΔTm [°C] |
| --- | --- |
| O=c1cc(-c2ccc(O)cc2)oc2cc(O)cc(O)c12 | 1.1 |
| Cc1cc2ncc(-c3ccccc3)nc2cc1C | 0.5 |
| O=C(O)c1cc(NCc2cc(O)ccc2O)ccc1O | -0.4 |
| CC(C)N(CCO)c1nc(Nc2cccc(Cl)c2)c2ncn(C(C)C)c2n1 | 3.3 |
| OC[C@H]1O[C@@H](n2cnc3cc(Cl)c(Cl)cc32)[C@H](O)[C@@H]1O | 0.2 |
| COc1cc2ncnc(Nc3cccc(O)c3)c2cc1OC | 0.4 |

molecular target: Serine/threonine-protein kinase VRK2 (Homo sapiens) (UniProt Q86Y07)
Sequence (Q86Y07 whole entry): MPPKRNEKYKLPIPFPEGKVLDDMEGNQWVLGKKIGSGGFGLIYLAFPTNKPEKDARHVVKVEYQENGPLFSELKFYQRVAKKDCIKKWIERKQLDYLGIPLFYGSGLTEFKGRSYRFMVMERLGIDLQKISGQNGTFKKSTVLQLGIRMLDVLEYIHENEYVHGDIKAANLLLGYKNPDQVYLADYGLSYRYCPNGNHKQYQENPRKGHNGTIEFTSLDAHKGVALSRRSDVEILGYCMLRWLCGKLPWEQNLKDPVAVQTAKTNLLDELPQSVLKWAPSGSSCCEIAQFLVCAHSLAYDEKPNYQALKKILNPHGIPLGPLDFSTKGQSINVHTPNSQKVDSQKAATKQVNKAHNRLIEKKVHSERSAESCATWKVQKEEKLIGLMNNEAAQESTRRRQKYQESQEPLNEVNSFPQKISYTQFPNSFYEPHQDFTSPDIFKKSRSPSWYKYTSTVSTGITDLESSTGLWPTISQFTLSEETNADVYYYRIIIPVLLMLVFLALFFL

| Compound | ΔTm [°C] |
| --- | --- |
| O=c1cc(-c2ccc(O)cc2)oc2cc(O)cc(O)c12 | 0.6 |
| Cc1cc2ncc(-c3ccccc3)nc2cc1C | 0.4 |
| O=C(O)c1cc(NCc2cc(O)ccc2O)ccc1O | -0.2 |
| CC(C)N(CCO)c1nc(Nc2cccc(Cl)c2)c2ncn(C(C)C)c2n1 | 2.7 |
| OC[C@H]1O[C@@H](n2cnc3cc(Cl)c(Cl)cc32)[C@H](O)[C@@H]1O | 0 |
| COc1cc2ncnc(Nc3cccc(O)c3)c2cc1OC | 0.9 |
